Assays:
[1] = system: MYC transcription from ecDNA in COLO320-DM; assay: MYC transcription probability by joint nascent RNA and DNA FISH; assay type: cell-based, human; settings: 500 nM JQ1, 6 hours, RNA normalized to ecDNA copy number
Source text: To quantify the MYC gene expression on the ecDNAs, we ordered the RNA FISH probes conjugated with a Quasar 570 dye (Biosearch Technologies) targeting to the intronic region of human (hg19) MYC gene for detection of nascent RNA transcript. We also ordered the RNA FISH probes conjugated with a Quasar 670 dye targeting to the exonic region of human MYC gene for detection of both mature and nascent RNA transcripts. […]
To characterize the ecDNA hub shape and size, we employed the synthetic model—Surfaces object from Imaris (version 9.1, Bitplane) and applied a Gaussian filter (σ=1 voxel in xy) and background subtraction for optimal segmentation and quantification of ecDNA hubs. ecDNA hubs containing connected voxels were sorted by size and singleton ecDNAs were separated from ecDNA hubs (minimal two ecDNA molecules).
To measure the number of ecDNA or nascent transcripts, we localized the voxels corresponding to the local maximum of identified DNA or RNA FISH signal using the Imaris spots function module. We validated the accuracy of interphase ecDNA counting by comparing to quantification of ecDNA number by metaphase FISH as well as copy number estimated by whole genome sequencing FIG. 5f). […]

[2] = system: ecDNA hubs in TetO-GFP COLO320-DM cells; assay: Live cell imaging of TetR-eGFP-labeled ecDNAs through cell division; assay type: cell-based, human; settings: 500 nM JQ1
Source text: sgRNA was designed by E-CRISP (http://www.e-crisp.org/E-CRISP/designcrispr.html) targeting ˜0.5 kb upstream of MYC transcription start site or N-terminal BRD4 gene. The sgRNA was cloned into the modified pX330 (Addgene, Cat #42230) construct co-expressing wild type SpCas9 and a PGK-Venus cassette. ˜500 bp homology arms were PCR amplified from COLO320-DM cells and cloned into a pUC19 donor vector together with ˜96 copies of TetO array and a blasticidin selection cassette
(Addgene #118713) for ecDNA-TetO array or with HaloTag (Addgene #139747) for BRD4. 2 μg of the donor vector and 1 μg of the sgRNA vector were transfected into COLO320-DM cells by lipofectamine 3000. For ecDNA-TetO array, blasticidin (10 ug/ml) selection was applied after 7 days. For BRD4-HaloTag knock-in, 100 nM HaloTag ligand JF549 (a kind gift from Luke Lavis's lab at Janelia Research Campus) was applied to the cells followed by washing and FACS sorting. Individual clones were selected, genotyped by PCR and verified by Sanger sequencing before being tested for imaging. […]
To monitor ecDNA dynamics within the nucleus, the COLO320-DM TetO-eGFP cell line was transfected with the PiggyBac vector expressing H2B-SNAPf and the super PiggyBac transposase (2:1 ratio) as described previously51. […] TetO labeled ecDNA was similarly analyzed as described in previous DNA/RNA FISH section. […]

SMILES: Cc1sc2c(c1C)C(c1ccc(Cl)cc1)=N[C@@H](CC(=O)OC(C)(C)C)c1nnc(C)n1-2 [JQ1]
- reduction of MYC transcription probability per ecDNA copy [1]: four-fold
- ecDNA hub assembly following mitosis [2]: blocked
